In ChEMBL document CHEMBL5724914, “Linking interpersonal differences in gut microbiota composition and drug biotransformation activity” (2024):
Further: call rule not given here.

Assay: (§1) The drug is tested on Z-030 corresponding to mouse gut metagenome with ENA study accession number: PRJEB37062 and ENA sample accession number: ERS12561829 for biotransformation under anaerobic condition. The drug concentrations were measured over 9 timepoints collected between 0 and 24 hours of incubation by liquid-chromatography-coupled mass spectrometry (LC–MS)
Conditions: 2 µM
In the case of `O=C(Nc1ccccc1)OCC(CN1CCCCC1)OC(=O)Nc1ccccc1` (stereo not given) [DIPERODON], the “Bacterial Biotransformation” value is reported as “Compound NOT metabolized”. In the case of `C[C@@H](CO)NC(=O)[C@@H]1C=C2c3cccc4[nH]cc(c34)C[C@H]2N(C)C1.O=C(O)/C=C\C(=O)O` [ERGONOVINE MALEATE], the “Bacterial Biotransformation” value is reported as “Compound NOT metabolized”.

Assay: as §1, with “Z-028” for “Z-030”, “ERS12561827” for “ERS12561829”
Conditions: 2 µM
For `O=C(Nc1ccccc1)OCC(CN1CCCCC1)OC(=O)Nc1ccccc1` (stereo not given) [DIPERODON], the “Bacterial Biotransformation” value was “Compound NOT metabolized”. With `C[C@@H](CO)NC(=O)[C@@H]1C=C2c3cccc4[nH]cc(c34)C[C@H]2N(C)C1.O=C(O)/C=C\C(=O)O` [ERGONOVINE MALEATE] the “Bacterial Biotransformation” value was “Compound NOT metabolized”.

Assay: as §1, with “Z-027” for “Z-030”, “to” for “to mouse gut”, “ERS12561826” for “ERS12561829”
Conditions: 2 µM
For `O=C(Nc1ccccc1)OCC(CN1CCCCC1)OC(=O)Nc1ccccc1` (stereo not given) [DIPERODON], the “Bacterial Biotransformation” value was “Compound NOT metabolized”. With `C[C@@H](CO)NC(=O)[C@@H]1C=C2c3cccc4[nH]cc(c34)C[C@H]2N(C)C1.O=C(O)/C=C\C(=O)O` [ERGONOVINE MALEATE] the “Bacterial Biotransformation” value was “Compound NOT metabolized”.

Assay: as §1, with “Z-026” for “Z-030”, “to” for “to mouse gut”, “ERS12561825” for “ERS12561829”
Conditions: 2 µM
In the case of `O=C(Nc1ccccc1)OCC(CN1CCCCC1)OC(=O)Nc1ccccc1` (stereo not given) [DIPERODON], the “Bacterial Biotransformation” value is reported as “Compound NOT metabolized”. With `C[C@@H](CO)NC(=O)[C@@H]1C=C2c3cccc4[nH]cc(c34)C[C@H]2N(C)C1.O=C(O)/C=C\C(=O)O` [ERGONOVINE MALEATE] the “Bacterial Biotransformation” value was “Compound NOT metabolized”.

Assay: as §1, with “Z-024” for “Z-030”, “pig” for “mouse”, “ERS12561823” for “ERS12561829”
Conditions: 2 µM
For `O=C(Nc1ccccc1)OCC(CN1CCCCC1)OC(=O)Nc1ccccc1` (stereo not given) [DIPERODON], the “Bacterial Biotransformation” value was “Compound metabolized”. In the case of `C[C@@H](CO)NC(=O)[C@@H]1C=C2c3cccc4[nH]cc(c34)C[C@H]2N(C)C1.O=C(O)/C=C\C(=O)O` [ERGONOVINE MALEATE], the “Bacterial Biotransformation” value is reported as “Compound NOT metabolized”.

Assay: as §1, with “Z-020” for “Z-030”, “rabbit” for “mouse”, “ERS12561819” for “ERS12561829”
Conditions: 2 µM
For `O=C(Nc1ccccc1)OCC(CN1CCCCC1)OC(=O)Nc1ccccc1` (stereo not given) [DIPERODON], the “Bacterial Biotransformation” value was “Compound NOT metabolized”. In the case of `C[C@@H](CO)NC(=O)[C@@H]1C=C2c3cccc4[nH]cc(c34)C[C@H]2N(C)C1.O=C(O)/C=C\C(=O)O` [ERGONOVINE MALEATE], the “Bacterial Biotransformation” value is reported as “Compound NOT metabolized”.

Assay: as §1, with “Z-010” for “Z-030”, “to” for “to mouse gut”, “ERS12561810” for “ERS12561829”
Conditions: 2 µM
With `O=C(Nc1ccccc1)OCC(CN1CCCCC1)OC(=O)Nc1ccccc1` (stereo not given) [DIPERODON] the “Bacterial Biotransformation” value was “Compound metabolized”. With `C[C@@H](CO)NC(=O)[C@@H]1C=C2c3cccc4[nH]cc(c34)C[C@H]2N(C)C1.O=C(O)/C=C\C(=O)O` [ERGONOVINE MALEATE] the “Bacterial Biotransformation” value was “Compound NOT metabolized”.

Assay: as §1, with “Z-004” for “Z-030”, “to” for “to mouse gut”, “ERS12561804” for “ERS12561829”
Conditions: 2 µM
In the case of `O=C(Nc1ccccc1)OCC(CN1CCCCC1)OC(=O)Nc1ccccc1` (stereo not given) [DIPERODON], the “Bacterial Biotransformation” value is reported as “Compound metabolized”. With `C[C@@H](CO)NC(=O)[C@@H]1C=C2c3cccc4[nH]cc(c34)C[C@H]2N(C)C1.O=C(O)/C=C\C(=O)O` [ERGONOVINE MALEATE] the “Bacterial Biotransformation” value was “Compound NOT metabolized”.

Assay: as §1, with “Z-002” for “Z-030”, “rabbit” for “mouse”, “ERS12561802” for “ERS12561829”
Conditions: 2 µM
In the case of `O=C(Nc1ccccc1)OCC(CN1CCCCC1)OC(=O)Nc1ccccc1` (stereo not given) [DIPERODON], the “Bacterial Biotransformation” value is reported as “Compound NOT metabolized”. With `C[C@@H](CO)NC(=O)[C@@H]1C=C2c3cccc4[nH]cc(c34)C[C@H]2N(C)C1.O=C(O)/C=C\C(=O)O` [ERGONOVINE MALEATE] the “Bacterial Biotransformation” value was “Compound NOT metabolized”.

Assay: as §1, with “Z-001” for “Z-030”, “ERS12561801” for “ERS12561829”
Conditions: 2 µM
For `O=C(Nc1ccccc1)OCC(CN1CCCCC1)OC(=O)Nc1ccccc1` (stereo not given) [DIPERODON], the “Bacterial Biotransformation” value was “Compound NOT metabolized”. For `C[C@@H](CO)NC(=O)[C@@H]1C=C2c3cccc4[nH]cc(c34)C[C@H]2N(C)C1.O=C(O)/C=C\C(=O)O` [ERGONOVINE MALEATE], the “Bacterial Biotransformation” value was “Compound NOT metabolized”.

Assay: as §1, with “WLS-370” for “Z-030”, “human” for “mouse”, “ERS12561793” for “ERS12561829”
Conditions: 2 µM
For `O=C(Nc1ccccc1)OCC(CN1CCCCC1)OC(=O)Nc1ccccc1` (stereo not given) [DIPERODON], the “Bacterial Biotransformation” value was “Compound NOT metabolized”. In the case of `C[C@@H](CO)NC(=O)[C@@H]1C=C2c3cccc4[nH]cc(c34)C[C@H]2N(C)C1.O=C(O)/C=C\C(=O)O` [ERGONOVINE MALEATE], the “Bacterial Biotransformation” value is reported as “Compound metabolized”.

Assay: as §1, with “WLS-170” for “Z-030”, “human” for “mouse”, “ERS12561762” for “ERS12561829”
Conditions: 2 µM
With `O=C(Nc1ccccc1)OCC(CN1CCCCC1)OC(=O)Nc1ccccc1` (stereo not given) [DIPERODON] the “Bacterial Biotransformation” value was “Compound metabolized”. In the case of `C[C@@H](CO)NC(=O)[C@@H]1C=C2c3cccc4[nH]cc(c34)C[C@H]2N(C)C1.O=C(O)/C=C\C(=O)O` [ERGONOVINE MALEATE], the “Bacterial Biotransformation” value is reported as “Compound metabolized”.

Assay: as §1, with “WLS-090” for “Z-030”, “human” for “mouse”, “ERS12561753” for “ERS12561829”
Conditions: 2 µM
With `O=C(Nc1ccccc1)OCC(CN1CCCCC1)OC(=O)Nc1ccccc1` (stereo not given) [DIPERODON] the “Bacterial Biotransformation” value was “Compound metabolized”. For `C[C@@H](CO)NC(=O)[C@@H]1C=C2c3cccc4[nH]cc(c34)C[C@H]2N(C)C1.O=C(O)/C=C\C(=O)O` [ERGONOVINE MALEATE], the “Bacterial Biotransformation” value was “Compound metabolized”.

Conditions: human gut metagenome, 24 h, 2 µM
In the case of `O=C(Nc1ccccc1)OCC(CN1CCCCC1)OC(=O)Nc1ccccc1` (stereo not given) [DIPERODON], the “Bacterial Biotransformation” value is reported as “Compound NOT metabolized”. With `C[C@@H](CO)NC(=O)[C@@H]1C=C2c3cccc4[nH]cc(c34)C[C@H]2N(C)C1.O=C(O)/C=C\C(=O)O` [ERGONOVINE MALEATE] the “Bacterial Biotransformation” value was “Compound metabolized”.

Conditions: human gut metagenome, 24 h, 2 µM
Remark: another data set of the same source
For `O=C(Nc1ccccc1)OCC(CN1CCCCC1)OC(=O)Nc1ccccc1` (stereo not given) [DIPERODON], the “Bacterial Biotransformation” value was “Compound metabolized”. With `C[C@@H](CO)NC(=O)[C@@H]1C=C2c3cccc4[nH]cc(c34)C[C@H]2N(C)C1.O=C(O)/C=C\C(=O)O` [ERGONOVINE MALEATE] the “Bacterial Biotransformation” value was “Compound metabolized”.

Conditions: human gut metagenome, 24 h, 2 µM
Remark: another data set of the same source
In the case of `O=C(Nc1ccccc1)OCC(CN1CCCCC1)OC(=O)Nc1ccccc1` (stereo not given) [DIPERODON], the “Bacterial Biotransformation” value is reported as “Compound metabolized”. With `C[C@@H](CO)NC(=O)[C@@H]1C=C2c3cccc4[nH]cc(c34)C[C@H]2N(C)C1.O=C(O)/C=C\C(=O)O` [ERGONOVINE MALEATE] the “Bacterial Biotransformation” value was “Compound NOT metabolized”.

Conditions: human gut metagenome, 24 h, 2 µM
Remark: another data set of the same source
For `O=C(Nc1ccccc1)OCC(CN1CCCCC1)OC(=O)Nc1ccccc1` (stereo not given) [DIPERODON], the “Bacterial Biotransformation” value was “Compound NOT metabolized”. For `C[C@@H](CO)NC(=O)[C@@H]1C=C2c3cccc4[nH]cc(c34)C[C@H]2N(C)C1.O=C(O)/C=C\C(=O)O` [ERGONOVINE MALEATE], the “Bacterial Biotransformation” value was “Compound metabolized”.

Conditions: human gut metagenome, 24 h, 2 µM
Remark: another data set of the same source
For `O=C(Nc1ccccc1)OCC(CN1CCCCC1)OC(=O)Nc1ccccc1` (stereo not given) [DIPERODON], the “Bacterial Biotransformation” value was “Compound NOT metabolized”. With `C[C@@H](CO)NC(=O)[C@@H]1C=C2c3cccc4[nH]cc(c34)C[C@H]2N(C)C1.O=C(O)/C=C\C(=O)O` [ERGONOVINE MALEATE] the “Bacterial Biotransformation” value was “Compound metabolized”.

Conditions: human gut metagenome, 24 h, 2 µM
Remark: another data set of the same source
In the case of `O=C(Nc1ccccc1)OCC(CN1CCCCC1)OC(=O)Nc1ccccc1` (stereo not given) [DIPERODON], the “Bacterial Biotransformation” value is reported as “Compound metabolized”. For `C[C@@H](CO)NC(=O)[C@@H]1C=C2c3cccc4[nH]cc(c34)C[C@H]2N(C)C1.O=C(O)/C=C\C(=O)O` [ERGONOVINE MALEATE], the “Bacterial Biotransformation” value was “Compound metabolized”.

Conditions: human gut metagenome, 24 h, 2 µM
Remark: another data set of the same source
With `O=C(Nc1ccccc1)OCC(CN1CCCCC1)OC(=O)Nc1ccccc1` (stereo not given) [DIPERODON] the “Bacterial Biotransformation” value was “Compound NOT metabolized”. For `C[C@@H](CO)NC(=O)[C@@H]1C=C2c3cccc4[nH]cc(c34)C[C@H]2N(C)C1.O=C(O)/C=C\C(=O)O` [ERGONOVINE MALEATE], the “Bacterial Biotransformation” value was “Compound metabolized”.
